Assay results taken from US20240158446A1, “CYCLIC COMPOUND HAVING SELECTIVE INHIBITORY ACTION ON KRAS OVER HRAS AND NRAS” (CHUGAI SEIYAKU KABUSHIKI KAISHA, priority 2021, published 2024).
Where two headings read alike, the source gives them in different places.

Assays:
[1] = test system: human lung cancer strain NCI-H441;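 also: cell proliferation inhibition after four days measured by CellTiter-Glo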
[2] = target: GDP-bound KRAS wild-type protein (Homo sapiens, UniProt P01116); experiment: Binding to KRAS by surface plasmon resonance (SPR), Single Cycle Kinetics; conditions: GDP-bound KRAS wild-type protein, read-out: KRAS KD
[3] = target: GDP-bound NRAS wild-type protein (Homo sapiens, UniProt P01111); experiment: Binding to NRAS by surface plasmon resonance (SPR), Single Cycle Kinetics; conditions: for NRAS/KRAS (ratio of KD value for NRAS to KD value for KRAS): SPR, GDP-bound NRAS wild-type protein vs GDP-bound KRAS wild-type protein; for NRAS/KRAS (ratio of KD value with respect to GDP-bound NRAS wild-type protein to KD value with respect to KRAS): SPR KD ratio NRAS/KRAS, class symbols
[4] = target: GDP-bound HRAS wild-type protein (Homo sapiens, UniProt P01112); experiment: Binding to HRAS by surface plasmon resonance (SPR), Single Cycle Kinetics; conditions: for HRAS/KRAS (ratio of KD value for HRAS to KD value for KRAS): SPR, GDP-bound HRAS wild-type protein vs GDP-bound KRAS wild-type protein; for HRAS/KRAS (ratio of KD value with respect to GDP-bound HRAS wild-type protein to KD value with respect to KRAS): SPR KD ratio HRAS/KRAS, class symbols
[5] = SPR, Single Cycle Kinetics, 1:1 binding model
[6] = SPR Single Cycle Kinetics, 1:1 binding model

Sequence of GDP-bound HRAS wild-type protein (P01112 whole entry): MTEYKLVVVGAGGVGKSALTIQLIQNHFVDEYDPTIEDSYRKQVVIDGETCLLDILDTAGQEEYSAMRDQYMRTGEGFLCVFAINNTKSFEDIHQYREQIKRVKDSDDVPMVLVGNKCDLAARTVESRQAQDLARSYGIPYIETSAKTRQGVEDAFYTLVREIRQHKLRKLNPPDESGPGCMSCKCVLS
Sequence of GDP-bound KRAS wild-type protein (P01116 whole entry): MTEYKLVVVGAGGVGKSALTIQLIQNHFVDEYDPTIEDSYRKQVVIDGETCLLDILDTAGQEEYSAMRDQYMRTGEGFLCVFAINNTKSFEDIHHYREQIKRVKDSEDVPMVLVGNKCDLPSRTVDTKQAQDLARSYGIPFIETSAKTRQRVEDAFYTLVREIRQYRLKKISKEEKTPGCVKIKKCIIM
Sequence of GDP-bound NRAS wild-type protein (P01111 whole entry): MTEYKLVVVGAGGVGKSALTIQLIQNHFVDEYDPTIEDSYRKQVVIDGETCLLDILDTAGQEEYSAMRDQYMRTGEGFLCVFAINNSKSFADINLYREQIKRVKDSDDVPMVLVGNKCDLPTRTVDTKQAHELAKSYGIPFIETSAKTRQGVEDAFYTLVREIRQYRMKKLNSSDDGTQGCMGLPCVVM

IC50 [1] [nM] | Kd [2, 5] [nM] | Kd [2, 6] [nM] | Kd ([2]; SPR, Single Cycle Kinetics) [nM] | SMILES | NRAS/KRAS (ratio of KD value for NRAS to KD value for KRAS) ([3]; KD ratio class) | HRAS/KRAS (ratio of KD value for HRAS to KD value for KRAS) ([4]; KD ratio class) | NRAS/KRAS (ratio of KD value with respect to GDP-bound NRAS wild-type protein to KD value with respect to KRAS) [3] | HRAS/KRAS (ratio of KD value with respect to GDP-bound HRAS wild-type protein to KD value with respect to KRAS) [4] | NRAS/KRAS (ratio of KD value for NRAS to KD value for KRAS) [3] | HRAS/KRAS (ratio of KD value for HRAS to KD value for KRAS) [4]
22.2 | 0.2 | – | – | CCO[C@@H]1C[C@H]2C(=O)NC3(CCC3)C(=O)N(C)[C@@H](C3CCCC3)C(=O)N(C)[C@H](C(=O)N(C)C)CC(=O)N(C)[C@@H](CC3CC3)C(=O)N[C@@H]([C@@H](C)CC)C(=O)N(C)CC(=O)N(C)[C@H]3C/C=C\CCN(C3=O)[C@@H](Cc3ccc(C(F)(F)F)cc3)C(=O)N(C)CC(=O)N[C@@H](CCc3ccc(Cl)c(Cl)c3)C(=O)N2C1 [PP1253, (2S,8S,12R,14S,20S,23S,27S,30S,36S,38Z)-20-cyclopentyl-27-(cyclopropylmethyl)-8-[2-(3,4-dichlorophenyl)ethyl]-12-ethoxy-N,N,4,19,22,26,32,35-octamethyl-30-[(1S)-1-methylpropyl]-3,6,9,15,18,21,25,28,31,34,42-undecaoxo-2-[[4-(trifluoromethyl)phenyl]methyl]spiro[1,4,7,10,16,19,22,26,29,32,35-undecazatricyclo[34.5.1.0^10,14]dotetracont-38-ene-17,1′-cyclobutane]-23-carboxamide] | A (a compound having 10 or more and less than 20 is denoted as A) | A (a compound having 10 or more and less than 20 is denoted as A) | – | – | – | –
330 | – | 4.3 | – | CCC[C@H]1C(=O)N[C@@H](CC(C)C)C(=O)N(CC)CC(=O)N(C)[C@H]2C/C=C\CCN(C2=O)[C@@H](Cc2ccc(C)cc2)C(=O)N(C)CC(=O)N[C@@H](CCc2cc(F)c(C(F)(F)F)c(F)c2)C(=O)N2C[C@H](OCC)C[C@H]2C(=O)NC2(CCC2)C(=O)N(C)[C@@H](C2CCCC2)C(=O)N(C)[C@H](C(=O)N(C)C)CC(=O)N1C [PP2539] | – | – | A (a compound having 10 or more and less than 20 is denoted as A) | B (a compound having 3 or more and less than 10 is denoted as B) | – | –
85.8 | 0.92 | – | – | CCO[C@@H]1C[C@H]2C(=O)NC3(CCC3)C(=O)N(C)[C@@H](C3CCCC3)C(=O)N(C)[C@H](C(=O)N(C)C)CC(=O)N(C)[C@@H](CC(C)C)C(=O)N[C@@H]([C@@H](C)CC)C(=O)N(C)CC(=O)N(C)[C@H]3C/C=C\CCN(C3=O)[C@@H](Cc3ccc(F)cc3C)C(=O)N(C)CC(=O)N[C@@H](CCc3ccc(Cl)c(Cl)c3)C(=O)N2C1 [PP1480] | A (a compound having 10 or more and less than 20 is denoted as A) | B (a compound having 3 or more and less than 10 is denoted as B) | – | – | – | –
279 | – | 4.3 | – | CCC[C@H]1C(=O)N[C@@H](CC(C)C)C(=O)N(CC)CC(=O)N(C)[C@H]2C/C=C\CCN(C2=O)[C@@H](Cc2ccc(C)cc2)C(=O)N(C)CC(=O)N[C@@H](CCc2ccc(C(F)(F)F)c(Cl)c2)C(=O)N2C[C@H](OCC)C[C@H]2C(=O)NC2(CCC2)C(=O)N(C)[C@@H](C2CCCC2)C(=O)N(C)[C@H](C(=O)N(C)C)CC(=O)N1C [PP2545] | – | – | A (a compound having 10 or more and less than 20 is denoted as A) | A (a compound having 10 or more and less than 20 is denoted as A) | – | –
338 | – | – | 1.8 | CCO[C@@H]1C[C@H]2C(=O)NC3(CCC3)C(=O)N(C)[C@@H](C3CCCC3)C(=O)N(C)[C@H](C(=O)N3CCOCC3)CC(=O)N(C)[C@@H](Cc3ccc(Cl)c(Cl)c3)C(=O)N[C@@H]([C@@H](C)CC)C(=O)N(C)CC(=O)N(C)[C@H]3CCCCCN(C3=O)[C@@H](Cc3ccc(C(F)(F)F)cc3)C(=O)N(C)CC(=O)N[C@@H](CCc3cc(F)c(C(F)(F)F)c(F)c3)C(=O)N2C1 [PP1168] | – | – | – | – | A (a compound having 10 or more and less than 20 is denoted as A) | A (a compound having 10 or more and less than 20 is denoted as A)
